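Compound exposure: 48 hours, 5 concentrations, 96-well plates. Abbreviation: GI50, concentration required for 50% inhibition of growth. The concentration for full growth arrest is given as TGI.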
What was measured:
Assay in all cases: NCI tumour cell line growth inhibition, 48 h
NCI-H460 lung = tested on: NCI-H460 lung
COLO 205 colon = tested on: COLO 205 colon
IGROV1 ovarian = tested on: IGROV1 ovarian
UACC-62 melanoma = tested on: UACC-62 melanoma
HCT-15 colon = tested on: HCT-15 colon
MOLT-4 leukemia = tested on: MOLT-4 leukemia
CAKI-1 renal = tested on: CAKI-1 renal
NCI-H226 lung = tested on: NCI-H226 lung
KM12 colon = tested on: KM12 colon
BT-549 breast = tested on: BT-549 breast

Row | SMILES | TGI (NCI-H460 lung) | TGI (COLO 205 colon) | TGI (IGROV1 ovarian) | TGI (UACC-62 melanoma) | TGI (HCT-15 colon) | TGI (MOLT-4 leukemia) | TGI (CAKI-1 renal) | TGI (NCI-H226 lung) | TGI (KM12 colon) | GI50 (COLO 205 colon) | GI50 (UACC-62 melanoma) | GI50 (BT-549 breast) | TGI (BT-549 breast) | GI50 (CAKI-1 renal) | GI50 (NCI-H226 lung) | GI50 (KM12 colon) | GI50 (NCI-H460 lung) | GI50 (IGROV1 ovarian) | GI50 (HCT-15 colon) | GI50 (MOLT-4 leukemia)
1 | C=C(CCOC)CCC1CCCCC(=C)[C@H]1O (some centres undefined) | > 100 µM | > 100 µM | > 100 µM | > 100 µM | > 100 µM | > 100 µM | > 100 µM | > 100 µM | > 100 µM |  |  |  |  |  |  |  |  |  |  | 
2 | O=c1c(O)cccn1C1OC(CO)C(O)C1O (centres undefined) | > 100 µM | > 100 µM | > 100 µM | > 100 µM | > 100 µM |  | > 100 µM | > 100 µM | > 100 µM |  |  |  |  |  |  |  |  |  |  | 
3 | C[PH+](c1nc2ccccc2nc1[PH+](C)C(C)(C)C)C(C)(C)C.C[PH+](c1nc2ccccc2nc1[PH+](C)C(C)(C)C)C(C)(C)C.[Au+].[Cl-] (centres undefined) |  | 0.0442 µM |  | 0.165 µM |  |  | 0.537 µM | 2.44 µM | 0.131 µM | 0.0198 µM | 0.0371 µM | 0.0324 µM | 0.0961 µM | 0.222 µM | 0.0539 µM | 0.0314 µM |  |  |  | 
4 | CCN(CCCl)c1cccc(NC(=O)c2ccc(C(=O)Nc3cccc(CN(C)C)c3)cc2)c1 | 1.36 µM | 0.24 µM | 1.13 µM | 0.309 µM | 6.58 µM | 1.15 µM | 1.58 µM |  |  |  |  |  |  |  |  |  |  |  |  | 
5 | C=CCCCCn1c2ccccc2c2c(C)c3cnccc3c(C)c21 | 39.2 µM | 18 µM | 46.4 µM | 40.9 µM | 27.5 µM | 9.47 µM | 27.8 µM | 94.9 µM | 42.6 µM |  |  |  |  |  |  |  |  |  |  | 
6 | O=C(O)CCSC1=NCCN1 | > 100 µM | > 100 µM | > 100 µM | > 100 µM | > 100 µM |  | > 100 µM | > 100 µM | > 100 µM |  |  |  | > 100 µM |  |  |  |  |  |  | 
7 | C[C@]12CCC(=O)C=C1CC[C@@H]1[C@@H]2[C@@H](O)C[C@@]2(C)[C@H]1CC[C@]2(O)C(=O)COC(=O)CCC1CCCC1 | > 100 µM | > 100 µM | > 100 µM | > 100 µM | > 100 µM | > 100 µM | > 100 µM | > 100 µM | > 100 µM |  |  |  |  |  |  |  |  |  |  | 
8 | COc1cc2oc(=O)cc(C)c2cc1OC |  | > 100 µM | > 100 µM | > 100 µM | > 100 µM | > 100 µM |  | > 100 µM | > 100 µM |  |  |  |  |  |  |  |  |  |  | 
9 | N#C/C(=C1/c2cc([N+](=O)[O-])ccc2-c2c1cc([N+](=O)[O-])cc2[N+](=O)[O-])N1CCCCC1 |  | > 100 µM | > 100 µM | > 100 µM | > 100 µM | > 100 µM | > 100 µM | > 100 µM | > 100 µM |  |  |  | > 100 µM |  |  |  |  |  |  | 
10 | O=c1c2cc(Br)ccc2ncn1COCc1ccccc1 |  | > 100 µM | > 100 µM | > 100 µM | > 100 µM | > 100 µM |  | > 1 µM | > 100 µM |  |  |  |  |  |  |  |  |  |  | 
11 | CC1=CC[C@](C)(O)[C@@]2(C)CC[C@H]3C(=C(C)C)C(=O)C[C@]3(C)C[C@H]12 |  | > 50 µM | > 50 µM | 47.1 µM | 46.2 µM | 25.7 µM | > 50 µM | > 50 µM | > 50 µM |  |  |  | > 50 µM |  |  |  |  |  |  | 
12 | Cc1nc2cccc(F)c2c(=O)n1-c1nnc(C(F)(F)F)s1 | > 10 µM | > 10 µM | > 10 µM | > 10 µM | > 10 µM | > 10 µM | > 10 µM | > 10 µM | > 10 µM |  |  |  |  |  |  |  |  |  |  | 
13 | O=c1nc2ccc3sc4ccccc4c(=O)c3n2c(=O)[nH]1 | > 100 µM | > 100 µM | > 100 µM |  | > 100 µM | > 100 µM | > 100 µM | > 100 µM | > 100 µM |  |  |  |  |  |  |  |  |  |  | 
14 | NC(=S)NNC(=S)NC(=O)c1ccco1 | > 10 µM |  | > 10 µM | > 10 µM | > 10 µM | > 10 µM | > 10 µM | > 10 µM | > 10 µM |  |  |  |  |  |  |  |  |  |  | 
15 | CCOC(=O)CCC(NC(=O)OCc1ccccc1)C(=O)NC(CCC(=O)OCC)C(=O)NC(CCC(=O)OCC)C(=O)NNC(=O)OC(C)(C)C (centres undefined) | > 100 µM | > 100 µM | > 100 µM | > 100 µM | > 100 µM | > 100 µM |  | > 100 µM |  |  |  |  | > 100 µM |  |  |  |  |  |  | 
16 | CS(=O)(=O)[O-].CS(=O)(=O)[O-].NC1CCCCC1N.[Pt+4] (centres undefined) | > 100 µM | > 100 µM | > 100 µM | > 100 µM | > 100 µM | > 100 µM | > 100 µM | > 100 µM | > 100 µM | 35.9 µM | > 100 µM |  |  | 41.8 µM | 39.2 µM | > 100 µM | 47.2 µM | > 69.4 µM | > 100 µM | 29 µM
17 | CC1(C)C=[N+]([O-])C(C)(C)N1O | > 10 µM | > 10 µM |  |  | > 10 µM | > 10 µM | > 10 µM | > 10 µM | > 10 µM |  |  |  | > 10 µM |  |  |  |  |  |  | 

Source: PubChem BioAssay (NCI)
